In brackets after ≈: the same amount, converted by molar mass. Read-outs that look alike come from different tables or passages of the source.
Experiments:
Type in all cases: cell-based
[1] = system: A-549 (Lung) human cancer cell line; test: In vitro anti-tumor screen, cancer cell antiproliferative assay, A-549
Experimental: (§1) The following tables summarize the activity of all the synthetic derivatives. […] Lower values represent higher activity.
(§2) ^9 Cancer cell antiproliferative assays were performed by Dr. Takashi Owa, a postdoctoral fellow in the Stuart L. Schreiber research group.

[2] = system: PC-3 (Prostate) human cancer cell line; test: In vitro anti-tumor screen, cancer cell antiproliferative assay, PC-3; settings: for IC50: Homo sapiens
Experimental: as §1, §2

[3] = system: A375 (Melanoma) human cancer cell line; test: In vitro anti-tumor screen, cancer cell antiproliferative assay, A375; settings: for IC50: Homo sapiens
Experimental: as §1, §2

[4] = system: HCT116 (Colon) human cancer cell line; test: In vitro anti-tumor screen, cancer cell antiproliferative assay, HCT116
Experimental: as §1, §2

[5] = Table 5, B-ring substitution at X1, lung, >100 ng/mL considered inactive, read-out: IC50 A-549
[6] = Table 5, B-ring substitution at X1, prostate, >100 ng/mL considered inactive, read-out: IC50 PC-3
[7] = A-375, Table 5, B-ring substitution at X1, melanoma, >100 ng/mL considered inactive, read-out: IC50 A375
[8] = HCT-116, Table 5, B-ring substitution at X1, colon, >100 ng/mL considered inactive, read-out: IC50 HCT-116
[9] = A549, Table 8, additional biological data, first value of cell, read-out: IC50 (ng/mL) Lung
[10] = Table 8, additional biological data, fourth value of cell, read-out: IC50 (ng/mL) Prost.
[11] = A-375, Table 8, additional biological data, third value of cell, read-out: IC50 (ng/mL) Melan.
[12] = HCT-116, Table 8, additional biological data, second value of cell, read-out: IC50 (ng/mL) Colon
[13] = A549, Table 6, A-ring substitution at X2, lung, read-out: IC50 A-549
[14] = Table 6, A-ring substitution at X2, prostate, read-out: IC50 PC-3
[15] = A-375, Table 6, A-ring substitution at X2, melanoma, read-out: IC50 A375
[16] = HCT-116, Table 6, A-ring substitution at X2, colon, read-out: IC50 HCT 116

Row | SMILES | IC50 [1, 5] [ng/mL] | IC50 [2, 6] [ng/mL] | IC50 [3, 7] [ng/mL] | IC50 [4, 8] [ng/mL] | IC50 [1, 9] [ng/mL] | IC50 [2, 10] [ng/mL] | IC50 [3, 11] [ng/mL] | IC50 [4, 12] [ng/mL] | further results
1 | CNC(=O)Oc1c(C)c2c(c3c1C[C@H]1[C@H]4c5c(cc(C)c(OC)c5O)C[C@@H]([C@H](C#N)N1[C@H]3CN1C(=O)c3ccccc3C1=O)N4C)OCO2 [Compound 66] |  |  |  |  |  |  |  |  | IC50 ([1]; A549, Table 7, additional analogs, read-out: IC50 Lung): 8.6 ng/mL (≈ 12.9 nM); IC50 ([2]; Table 7, additional analogs, read-out: IC50 Prostate): 2.1 ng/mL (≈ 3.15 nM); IC50 ([3]; A-375, Table 7, additional analogs, read-out: IC50 Melanoma): 0.92 ng/mL (≈ 1.38 nM); IC50 ([4]; HCT-116, Table 7, additional analogs, read-out: IC50 Colon): 1.3 ng/mL (≈ 1.95 nM)
2 | COc1c(C)cc2c(c1O)[C@@H]1[C@@H]3Cc4c(OC(C)=O)c(C)c5c(c4[C@H](COC(=O)Nc4ccccc4)N3[C@@H](C#N)[C@H](C2)N1C)OCO5 [Compound 22] | 4.5 (≈ 7.02 nM) | 2.6 (≈ 4.06 nM) | 1.9 (≈ 2.97 nM) | 2.3 (≈ 3.59 nM) |  |  |  |  | 
3 | COCOc1c(OC)c(C)cc2c1[C@@H]1[C@@H]3Cc4c(OC(C)=O)c(C)c5c(c4[C@H](CN4C(=O)c6ccccc6C4=O)N3[C@@H](C#N)[C@H](C2)N1C)OCO5 |  |  |  |  | 160 (≈ 230 nM) | 68 (≈ 97.9 nM) | 46 (≈ 66.2 nM) | 51 (≈ 73.4 nM) | 
4 | COC1=C(C)C(=O)C2=C(C1=O)[C@H](CN1C(=O)c3ccccc3C1=O)N1[C@@H](C#N)[C@@H]3Cc4cc(C)c(OC)c(O)c4[C@H]([C@@H]1C2)N3C |  |  |  |  | > 100 | 22 (≈ 36.1 nM) | 9 (≈ 14.8 nM) | 24 (≈ 39.4 nM) | 
5 | COC1=C(C)C(=O)C2=C(C1=O)[C@@H]1[C@@H]3Cc4c(OC(C)=O)c(C)c5c(c4[C@H](CN4C(=O)c6ccccc6C4=O)N3[C@@H](C#N)[C@H](C2)N1C)OCO5 |  |  |  |  | 1.1 (≈ 1.65 nM) | 0.45 (≈ 0.677 nM) | 0.3 (≈ 0.451 nM) | 0.53 (≈ 0.797 nM) | 
6 | COc1c(C)cc2c(c1O)[C@@H]1[C@@H]3Cc4c(OS(C)(=O)=O)c(C)c5c(c4[C@H](CN4C(=O)c6ccccc6C4=O)N3[C@@H](C#N)[C@H](C2)N1C)OCO5 [Compound 44] |  |  |  |  |  |  |  |  | IC50 ([1]; A549, read-out: IC50 A-549): 1.2 ng/mL (≈ 1.75 nM); IC50 ([2]; read-out: IC50 PC-3): 0.59 ng/mL (≈ 0.859 nM); IC50 ([3]; A-375, read-out: IC50 A375): 0.2 ng/mL (≈ 0.291 nM); IC50 ([4]; HCT-116, read-out: IC50 HCT 116): 0.4 ng/mL (≈ 0.582 nM)
7 | COc1c(C)cc2c(c1OC(C)=O)[C@@H]1[C@@H]3Cc4c(OC(C)=O)c(C)c5c(c4[C@H](CN4C(=O)c6ccccc6C4=O)N3[C@@H](C#N)[C@H](C2)N1C)OCO5 |  |  |  |  | 40 (≈ 57.7 nM) | 17 (≈ 24.5 nM) | 8.3 (≈ 12 nM) | 20 (≈ 28.9 nM) | 
8 | COc1c(C)cc2c(c1O)[C@@H]1[C@@H]3Cc4c(O)c(C)c5c(c4[C@H](CN4C(=O)c6ccccc6C4=O)N3[C@@H](C#N)[C@H](C2)N1C)OCO5 [Compound 48] |  |  |  |  |  |  |  |  | IC50 [1, 13]: 30 ng/mL (≈ 49.3 nM); IC50 [2, 14]: 7.7 ng/mL (≈ 12.7 nM); IC50 [3, 15]: 2.5 ng/mL (≈ 4.11 nM); IC50 [4, 16]: 6 ng/mL (≈ 9.86 nM)
9 | COc1c(C)cc2c(c1O)[C@@H]1[C@@H]3Cc4c(OC(C)=O)c(C)c5c(c4[C@H](CN4C(=O)c6ccc(N)cc6C4=O)N3[C@@H](C#N)[C@H](C2)N1C)OCO5 [Compound 20] | 14 (≈ 21 nM) | 2 (≈ 3 nM) | 0.79 (≈ 1.19 nM) | 2.1 (≈ 3.15 nM) |  |  |  |  | 
10 | COc1c(C)cc2c(c1O)[C@@H]1[C@@H]3Cc4c(OC(C)=O)c(C)c5c(c4[C@H](CNC(=O)Cc4ccc(O)cc4)N3[C@@H](C#N)[C@H](C2)N1C)OCO5 [Compound 56] | > 100 | 24 (≈ 36.7 nM) | 6.5 (≈ 9.93 nM) | 20 (≈ 30.5 nM) |  |  |  |  | 
11 | COc1c(C)cc2c(c1O)[C@@H]1[C@@H]3Cc4c(OC(C)=O)c(C)c5c(c4[C@H](CN4Cc6ccccc6C4=O)N3[C@@H](C#N)[C@H](C2)N1C)OCO5 [Compound 27] | 7.2 (≈ 11.3 nM) | 1.7 (≈ 2.67 nM) | 0.71 (≈ 1.12 nM) | 2.2 (≈ 3.46 nM) |  |  |  |  | 
12 | COc1c(C)cc2c(c1O)[C@@H]1[C@@H]3CC4=C(C(=O)C(O)=C(C)C4=O)[C@H](CN4C(=O)c5ccccc5C4=O)N3[C@@H](C#N)[C@H](C2)N1C |  |  |  |  | 48 (≈ 80.7 nM) | 9 (≈ 15.1 nM) | 2.1 (≈ 3.53 nM) | 13 (≈ 21.9 nM) | 
13 | COc1c(C)cc2c(c1O)[C@H]1N[C@@H](C2)[C@H](C#N)N2[C@@H](CN3C(=O)c4ccccc4C3=O)c3c(c(OC(C)=O)c(C)c4c3OCO4)C[C@@H]12 |  |  |  |  | 21 (≈ 33 nM) | 3.3 (≈ 5.18 nM) | 1.9 (≈ 2.98 nM) | 3.5 (≈ 5.5 nM) | 
14 | COc1c(C)cc2c(c1O)[C@@H]1[C@@H]3Cc4c(OC(C)=O)c(C)c5c(c4[C@H](CN4C(=O)c6ccccc6C4=O)N3[C@@H](C#N)[C@H](C2)N1C)OCO5 |  |  |  |  | 0.67 (≈ 1.03 nM) | 0.34 (≈ 0.523 nM) | 0.13 (≈ 0.2 nM) | 0.39 (≈ 0.599 nM) | 
15 | COc1c(C)c(Br)c2c(c1O)[C@@H]1[C@@H]3Cc4c(OC(C)=O)c(C)c5c(c4[C@H](CN4C(=O)c6ccccc6C4=O)N3[C@@H](C#N)[C@H](C2)N1C)OCO5 |  |  |  |  | 4.7 (≈ 6.44 nM) | 2 (≈ 2.74 nM) | 0.47 (≈ 0.644 nM) | 1.3 (≈ 1.78 nM) | 
16 | COc1c(C)cc2c(c1O)[C@@H]1[C@@H]3Cc4c(OC(C)=O)c(C)c5c(c4[C@H](CN4C(=O)c6ccncc6C4=O)N3[C@@H](C#N)[C@H](C2)N1C)OCO5 [Compound 32] | 11 (≈ 16.9 nM) | 37 (≈ 56.8 nM) | 0.36 (≈ 0.552 nM) | 2.1 (≈ 3.22 nM) |  |  |  |  | 
17 | COc1c(C)c(Cl)c2c(c1O)[C@@H]1[C@@H]3Cc4c(OC(C)=O)c(C)c5c(c4[C@H](CN4C(=O)c6ccccc6C4=O)N3[C@@H](C#N)[C@H](C2)N1C)OCO5 |  |  |  |  | 1.9 (≈ 2.77 nM) | 0.73 (≈ 1.07 nM) | 0.24 (≈ 0.35 nM) | 0.7 (≈ 1.02 nM) | 
18 | COc1c(C)cc2c(c1O)[C@@H]1[C@@H]3Cc4c(OC(C)=O)c(C)c5c(c4[C@H](CN4C(=O)c6ccccc6C4O)N3[C@@H](C#N)[C@H](C2)N1C)OCO5 (some centres unmarked) [Compound 28] | 22 (≈ 33.7 nM) | 2.7 (≈ 4.14 nM) | 0.79 (≈ 1.21 nM) | 2.4 (≈ 3.68 nM) |  |  |  |  | 
19 | COc1c(C)cc2c(c1O)[C@@H]1[C@@H]3Cc4c(OC(C)=O)c(C)c5c(c4[C@H](CN4C(=O)c6ccccc6C4=O)N3[C@@H](C#N)[C@H](C2)N1C)OCO5 [Compound 7] | 0.62 (≈ 0.953 nM) | 0.36 (≈ 0.553 nM) | 0.11 (≈ 0.169 nM) | 0.25 (≈ 0.384 nM) |  |  |  |  | IC50 [1, 13]: 0.62 ng/mL (≈ 0.953 nM); IC50 PC-3 ([2]; Table 6, A-ring substitution at X2, prostate): 0.36 ng/mL (≈ 0.553 nM); IC50 A375 ([3]; Table 6, A-ring substitution at X2, melanoma): 0.11 ng/mL (≈ 0.169 nM); IC50 [4, 16]: 0.25 ng/mL (≈ 0.384 nM)
20 | COc1c(C)cc2c(c1O)[C@@H]1[C@@H]3Cc4c(OC(C)=O)c(C)c5c(c4[C@H](CNC(=O)c4ccccc4)N3[C@@H](C#N)[C@H](C2)N1C)OCO5 [Compound 63] |  |  |  |  |  |  |  |  | IC50 ([1]; A549, read-out: IC50 Lung): 2 ng/mL (≈ 3.2 nM); IC50 ([2]; read-out: IC50 Prostate): 0.4 ng/mL (≈ 0.64 nM); IC50 ([3]; A-375, read-out: IC50 Melanoma): 0.22 ng/mL (≈ 0.352 nM); IC50 ([4]; HCT-116, read-out: IC50 Colon): 0.37 ng/mL (≈ 0.592 nM)
21 | C=CCOc1c(C)c2c(c3c1C[C@H]1[C@H]4c5c(cc(C)c(OC)c5O)C[C@@H]([C@H](C#N)N1[C@H]3CN1C(=O)c3ccccc3C1=O)N4C)OCO2 [Compound 45] |  |  |  |  |  |  |  |  | IC50 [1, 13]: 5.2 ng/mL (≈ 8.02 nM); IC50 [2, 14]: 3.1 ng/mL (≈ 4.78 nM); IC50 [3, 15]: 0.98 ng/mL (≈ 1.51 nM); IC50 [4, 16]: 2.1 ng/mL (≈ 3.24 nM)
22 | COc1c(C)cc2c(c1O)[C@@H]1[C@@H]3Cc4c(O)c(C)c5c(c4[C@H](CNC(=O)Cc4ccc(OC(C)=O)cc4)N3[C@@H](C#N)[C@H](C2)N1C)OCO5 |  |  |  |  | > 100 | > 100 | > 100 | > 100 | 
